Source: patent US8759373B2, “Cyanoisoquinoline compounds and methods of use thereof” (Fibrogen, Inc., priority 2006, dated 2014)

System: mouse erythropoietin
Assay: Plasma erythropoietin levels in mice after IV dosing (mouse erythropoietin QUANTIKINE ELISA)
Format: in vivo, Male Swiss Webster mice
Conditions: blood 4 hours post IV dosing, same conditions and concentration
Experimental: Compounds were tested for activity using the following assay. Compounds were dissolved in aqueous solution containing twice as much sodium hydroxide, mole-for-mole, as compound and dextrose as tonicity agent. Male Swiss Webster mice were dosed by tail vein injection with the compound, and blood samples were collected into EDTA and heparin 4 hours post IV dosing. The samples were analyzed using a mouse erythropoietin QUANTIKINE ELISA kit (R&D Systems Inc., Minneapolis Minn.) according to the manufacturer's instructions. […] Table 1 below illustrates the fold difference (i.e., the level of improvement) between erythropoietin levels achieved by compounds of the invention compared to erythropoietin levels achieved by compounds having the same structure except the cyano group at the C-1 position is replaced as shown below, tested under the same conditions and at the same concentration.

[1] = comparator: same structure with —Cl in place of cyano at C-1, tail vein injection
[2] = comparator: same structure with —CH3 in place of cyano at C-1, tail vein injection
[3] = comparator: same structure with —H in place of cyano at C-1, tail vein injection

## N#Cc1nc(C(=O)NCC(=O)O)c(O)c2ccccc12 [Example 1, [(1-Cyano-4-hydroxy-isoquinoline-3-carbonyl)-amino]-acetic acid]
[1]
  Fold Difference (erythropoietin levels vs. comparative compound): 4.7×

## N#Cc1nc(C(=O)NCC(=O)O)c(O)c2ccc(Oc3ccccc3)cc12 [Example 3, [(1-Cyano-4-hydroxy-7-phenoxy-isoquinoline-3-carbonyl)-amino]-acetic acid]
[2]
  Fold Difference (erythropoietin levels vs. comparative compound): 2.5×

## N#Cc1nc(C(=O)NCC(=O)O)c(O)c2ccc(Oc3ccc(F)cc3)cc12 [Example 6, {[1-Cyano-7-(4-fluoro-phenoxy)-4-hydroxy-isoquinoline-3-carbonyl]-amino}-acetic acid]
[1]
  Fold Difference (erythropoietin levels vs. comparative compound): 31×

## N#Cc1nc(C(=O)NCC(=O)O)c(O)c2cccc(Oc3ccccc3)c12 [Example 9, [(1-Cyano-4-hydroxy-8-phenoxy-isoquinoline-3-carbonyl)-amino]-acetic acid]
[2]
  Fold Difference (erythropoietin levels vs. comparative compound): 2.4×

## N#Cc1nc(C(=O)NCC(=O)O)c(O)c2cc(Oc3ccccc3)ccc12 [Example 12, [(1-Cyano-4-hydroxy-6-phenoxy-isoquinoline-3-carbonyl)-amino]-acetic acid]
comparator: same structure with —Br in place of cyano at C-1, tail vein injection
  Fold Difference (erythropoietin levels vs. comparative compound): 362×
[1]
  Fold Difference (erythropoietin levels vs. comparative compound): 449×

## COc1cccc(Oc2cccc3c(O)c(C(=O)NCC(=O)O)nc(C#N)c23)c1 [Example 20, {[1-Cyano-4-hydroxy-8-(3-methoxy-phenoxy)-isoquinoline-3-carbonyl]-amino}-acetic acid]
[3]
  Fold Difference (erythropoietin levels vs. comparative compound): 23×

## N#Cc1nc(C(=O)NCC(=O)O)c(O)c2ccc(Cc3ccccc3)cc12 [Example 22, [(7-Benzyl-1-cyano-4-hydroxy-isoquinoline-3-carbonyl)-amino]-acetic acid]
[3]
  Fold Difference (erythropoietin levels vs. comparative compound): 26×

## N#Cc1nc(C(=O)NCC(=O)O)c(O)c2c(Oc3ccc(F)cc3)cccc12 [Example 23, {[1-Cyano-5-(4-fluoro-phenoxy)-4-hydroxy-isoquinoline-3-carbonyl]-amino}-acetic acid]
[3]
  Fold Difference (erythropoietin levels vs. comparative compound): 277×

## Cc1nc2ccc(Oc3ccc4c(C#N)nc(C(=O)NCC(=O)O)c(O)c4c3)cc2s1 [Example 39, {[1-Cyano-4-hydroxy-6-(2-methyl-benzothiazol-6-yloxy)-isoquinoline-3-carbonyl]-amino}-acetic acid]
[2]
  Fold Difference (erythropoietin levels vs. comparative compound): 178×

## CN(C)c1nc2cc(Oc3ccc4c(C#N)nc(C(=O)NCC(=O)O)c(O)c4c3)ccc2o1 [Example 40, {[1-Cyano-6-(2-dimethylamino-benzooxazol-5-yloxy)-4-hydroxy-isoquinoline-3-carbonyl]-amino}-acetic acid]
[3]
  Fold Difference (erythropoietin levels vs. comparative compound): 81×
